Test system: reprogrammable MEFs
Assay: alkaline phosphatase-positive (AP+) transgene-independent iPSC colony formation
Type: cell-based, mouse
Conditions: 4-factor reprogrammable cells, doxycycline
Experimental: Transfections of RepMEFs with siRNAs were performed in 12-well plates at the time of dox administration. Per 12-well plate, 2 ul of Lipofectamine™ 2000 was added to 75 ul of Optimem™ (Life Technologies™) and 1.5 ul of siRNA (esiRNA, Sigma™) was added to 75 ul of Optimem™; both mixtures were separately incubated at room temperature for 5 minutes, then combined and incubated for another 15 minutes before adding the solution to the reprogramming media (normal media lacking antibiotics). After overnight incubation, the transfection media was replaced with regular reprogramming media.

Compound	generation of AP+ iPSC colonies, small molecules vs knockdown alone
Cc1c[nH]c(-c2cnc(NCCNc3ccc(C#N)cn3)nc2-c2ccc(Cl)cc2Cl)n1 [Gsk3 inhibitor, CHIR99021]	significantly enhanced
O=C1O[C@H]([C@@H](O)CO)C(O)=C1O [ascorbic acid, L-Ascorbic acid]	significantly enhanced

Source: patent US10059945B2, “Methods of controlling cell fate and consequences for disease” (THE GENERAL HOSPITAL CORPORATION, priority 2014, dated 2018)
